# Reference: patent publication US20250163119A1, “COMPOUNDS FOR THE TREATMENT OF DIABETES OR OBESITY” (Eli Lilly and Company, priority 2023, published 2025)
# *1 amine or outer side, *2 acyl side, *3 side chain or, on linkers, in order; H or OH if unused. Where a SMILES comes first, the peptide text is derived from it. Side-chain parts run from the residue outwards. [ ]: non-standard residue; d: D form. The star is where a group is joined. C20 diacid = O=C(O)CCCCCCCCCCCCCCCCCCC(=O)*; γGlu = O=C(O)[C@H](CCC(=O)[*:2])N[*:1]; εLys = N[C@@H](CCCCN[*:1])C(=O)[*:2]; αMeL = CC(C)C[C@](C)(N)C(=O)O; AEEA = NCCOCCOCC(=O)O
# How the values were obtained:
# human CRHR1 = biological target: T1, human CRHR1 (Homo sapiens, UniProt P34998); experiment: Human CRHR1 cAMP assay (HTRF) in HEK293 cells stably expressing human CRHR1; type: cell-based; details: HEK293 cells overexpressing human CRHR1; relative EC50, maximum 66 nM human UCN1; mean ± SE; read-out: hCRHR1 cAMP EC50 (pM, ± SE)
# T1 construct: expressed in transfected cells
# T1 sequence (P34998 24-415): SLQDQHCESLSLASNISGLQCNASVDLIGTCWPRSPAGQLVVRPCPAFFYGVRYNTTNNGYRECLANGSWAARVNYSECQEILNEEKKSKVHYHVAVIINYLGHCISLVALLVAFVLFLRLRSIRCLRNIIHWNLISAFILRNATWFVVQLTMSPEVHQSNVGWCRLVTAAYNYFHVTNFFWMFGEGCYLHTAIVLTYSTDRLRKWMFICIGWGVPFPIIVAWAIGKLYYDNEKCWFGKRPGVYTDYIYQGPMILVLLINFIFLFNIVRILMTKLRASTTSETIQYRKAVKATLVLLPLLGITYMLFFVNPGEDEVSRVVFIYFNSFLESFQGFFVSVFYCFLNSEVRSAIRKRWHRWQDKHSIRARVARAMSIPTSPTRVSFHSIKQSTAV
# Procedure: (§1) The corticotropin-releasing hormone (CRH) receptor 1 and 2 (CRHR1 and CRHR2) are GPCRs that were functionally coupled to Gs proteins. Stimulation of these receptors results in an increased production of intracellular cAMP, which can be detected using standard in vitro technologies. In vitro activity of peptides was measured by the amount of cAMP formed in human CRHR1 and CRHR2 overexpressed cells.
# (§2) Human CRHR1 and CRHR2 receptors were stably expressed in human embryonic kidney cells (HEK293) under control of a pcDNA expression vector. The HEK293 cell line was cultured in DMEM 1× (Gibco, 93-0152DK) supplemented with 10% FBS, 1 mM sodium pyruvate, 1×MEM NEAA, 1× GlutaMAX and 10 mM HEPES. The plasmids of human CRHR1-pQCXIP (T7364) and human CRHR2b-R2683puro (T16761) DNA were transfected into HEK293 cells using Lipo fectAMINE 3000 Transfection reagent (Invitrogen, L3000001). After 20 days under selection, the mRNA levels from different clones were measured to confirm the expression of human CRHR1 and CRHR2 genes. To determine the function of over-expressed CRHR cells, the intracellular cAMP levels in response to human UCN1 and UCN2 were measured and compared to the expression of CRHR1 and CRHR2 mRNA in each clone.
# (§3) Human CRHR1 cells were cultured in DMEM 1× (Gibco, 93-0152DK) supplemented with 10% FBS, 1 mM sodium pyruvate, 1×MEM NEAA, 1×GlutaMAX, 10 mM HEPES, and 800 μg/ml G418. Human CRHR2 cells were cultured at the same media (DMEM 1×, 10% FBS, 1 mM sodium pyruvate, 1×MEM NEAA, 1×GlutaMAX, 10 mM HEPES) in the presence of 0.5 ug/mL puromycin. Cultured cells were grown to 90% confluency and harvested. The cells were frozen at 10×10e6/ml in a mixture of […] fetal bovine serum plus 7% DMSO and stored in liquid nitrogen until use.
# (§4) On the day of the assay, the frozen cells were thawed and diluted in assay buffer (Phenol Red free MEM (Corning, 17-305-CV, lot #32121010), 0.1% Casein (Sigma C4765, lot #SLCG2120), 5 mM HEPES pH 7.4 containing 0.25 mM IBMX). 10 ul of human CRHR1 cells (25,000 cells) or 10 μL of human CRHR2 cells (5,000 cells) were dispensed into each well of white poly-D-lysine coated 384-well plates (Corning cat #354661). Test compounds diluted in DMSO were added (200 nL/well) in a 1:3 dilution series using ECHO acoustic liquid handler (Beckman). The mixture of cells and test compounds were incubated at 37° C. for 1 hour for the hCRHR1 plate, while the CRHR2 plates were incubated at room temperature for 30 min.
# (§5) The amount of intracellular cAMP was quantitated using HTRF technology (Homogeneous Time Resolved Fluorescence; Cisbio) as per vendor instructions. Briefly, 10 uL CAMP-d2 conjugate and 10 uL anti-CAMP-cryptate conjugate in lysis buffer were incubated with the treated cells at room temperature for 60 min. The HTRF signal was immediately detected using an Envision plate reader (Perkin-Elmer) to calculate the ratio of fluorescence at 665 to 620 nm.
# (§6) Raw fluorescence data for concentration curves of the peptides in Table 2 and Table 3 were converted to cAMP amount (pmol/well) using a cAMP standard curve generated for each experiment.
# human CRHR2 = biological target: T2, human CRHR2 (Homo sapiens, UniProt Q13324); experiment: Human CRHR2 cAMP assay (HTRF) in HEK293 cells stably expressing human CRHR2; type: cell-based; details: HEK293 cells overexpressing human CRHR2; relative EC50, maximum 10 nM human UCN2; mean ± SE; read-out: hCRHR2 cAMP EC50 (pM, ± SE)
# T2 construct: expressed in transfected cells
# T2 sequence (Q13324 1-438 isoform Q13324-2): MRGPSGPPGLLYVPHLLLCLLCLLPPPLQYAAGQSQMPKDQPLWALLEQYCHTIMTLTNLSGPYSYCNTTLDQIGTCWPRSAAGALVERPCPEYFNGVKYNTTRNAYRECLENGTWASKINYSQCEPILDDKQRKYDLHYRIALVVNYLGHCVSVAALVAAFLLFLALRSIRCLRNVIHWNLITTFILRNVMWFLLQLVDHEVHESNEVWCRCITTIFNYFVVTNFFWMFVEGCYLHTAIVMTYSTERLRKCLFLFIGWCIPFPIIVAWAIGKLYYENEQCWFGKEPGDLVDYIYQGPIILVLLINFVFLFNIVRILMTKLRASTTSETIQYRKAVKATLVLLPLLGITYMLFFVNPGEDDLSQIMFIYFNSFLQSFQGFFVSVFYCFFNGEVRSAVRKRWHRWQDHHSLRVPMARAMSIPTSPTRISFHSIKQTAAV
# Procedure: as §1, §2, §3, §4, §5, §6
EC50 (human CRHR1) [pM],EC50 (human CRHR2) [pM],SMILES
> 1e+07,5.4 ± 0.7,"CC[C@H](C)[C@H](NC(C)=O)C(=O)N[C@H](C(=O)N[C@H](C(=O)N[C@@H](CO)C(=O)N[C@@](C)(CC(C)C)C(=O)N[C@@H](CC(=O)O)C(=O)N[C@@H](C(=O)N1CCC[C@H]1C(=O)N[C@H](C(=O)NCC(=O)N[C@@](C)(CC(C)C)C(=O)N[C@@H](CC(C)C)C(=O)N[C@@H](CCC(N)=O)C(=O)N[C@H](C(=O)N[C@@H](CCCCN)C(=O)N[C@@H](CC(C)C)C(=O)N[C@@H](CCC(=O)O)C(=O)N[C@@H](CCC(N)=O)C(=O)N[C@@H](CCC(=O)O)C(=O)N[C@@H](CCCNC(=N)N)C(=O)N[C@@H](C)C(=O)N[C@@H](CCC(=O)O)C(=O)N[C@@H](CCCCN)C(=O)N[C@@H](C)C(=O)N[C@@H](CCCNC(=N)N)C(=O)N[C@@H](CCC(N)=O)C(=O)N[C@@H](CCC(N)=O)C(=O)N[C@@H](C)C(=O)N[C@@H](CCCCNC(=O)COCCOCCNC(=O)[C@@H](N)CCCCNC(=O)CC[C@H](NC(=O)CCCCCCCCCCCCCCCCCCC(=O)O)C(=O)O)C(=O)N[C@@H](CCC(=O)O)C(=O)N[C@@H](CC(N)=O)C(=O)N[C@H](C(=O)N[C@@H](CCC(=O)O)C(=O)N[C@H](C(=O)N[C@@H](CC(C)C)C(=O)N[C@@H](C)C(=O)N[C@@H](CCC(N)=O)C(=O)N[C@H](C(N)=O)C(C)C)[C@@H](C)CC)[C@@H](C)O)[C@@H](C)CC)[C@@H](C)O)C(C)C)[C@@H](C)O)C(C)C [SEQ ID NO: 32, Ac-IVTS αMeL D (D-Val) PTG αMeL LQIKLEQERAEKARQQAK((2-[2-(2-Amino-ethoxy)-ethoxy]-acetyl)-ϵK-γE-CO-(CH2)18-CO2H)ENTEILAQV-NH2] (Ac-IVTS[αMeL]D[dV]PTG[αMeL]LQIKLEQERAEKARQQAK([AEEA-εLys-γGlu-C20 diacid])ENTEILAQV-NH2)"
1.1e+06,4.6 ± 0.6,"CC[C@H](C)[C@H](NC(C)=O)C(=O)N[C@H](C(=O)N[C@H](C(=O)N[C@@H](CO)C(=O)N[C@@](C)(CC(C)C)C(=O)N[C@@H](CC(=O)O)C(=O)N[C@@H](C(=O)N1CCC[C@H]1C(=O)N[C@H](C(=O)NCC(=O)N[C@@](C)(CC(C)C)C(=O)N[C@@H](CC(C)C)C(=O)N[C@@H](CCC(N)=O)C(=O)N[C@H](C(=O)N[C@@H](CCCCN)C(=O)N[C@@H](CC(C)C)C(=O)N[C@@H](CCC(=O)O)C(=O)N[C@@H](CCC(N)=O)C(=O)N[C@@H](CCC(=O)O)C(=O)N[C@@H](CCCNC(=N)N)C(=O)N[C@@H](C)C(=O)N[C@@H](CCC(=O)O)C(=O)N[C@@H](CCCCN)C(=O)N[C@@H](C)C(=O)N[C@@H](CCCNC(=N)N)C(=O)N[C@@H](CCC(N)=O)C(=O)N[C@@H](CCC(N)=O)C(=O)N[C@@H](C)C(=O)N[C@@H](CCCCNC(=O)COCCOCCNC(=O)CC[C@H](NC(=O)[C@@H](N)CCCCNC(=O)CCCCCCCCCCCCCCCCCCC(=O)O)C(=O)O)C(=O)N[C@@H](CCC(=O)O)C(=O)N[C@@H](CC(N)=O)C(=O)N[C@H](C(=O)N[C@@H](CCC(=O)O)C(=O)N[C@H](C(=O)N[C@@H](CC(C)C)C(=O)N[C@@H](C)C(=O)N[C@@H](CCC(N)=O)C(=O)N[C@H](C(N)=O)C(C)C)[C@@H](C)CC)[C@@H](C)O)[C@@H](C)CC)[C@@H](C)O)C(C)C)[C@@H](C)O)C(C)C [SEQ ID NO: 33, Ac-IVTS αMeL D (D-Val) PTG αMeL LQIKLEQERAEKARQQAK((2-[2-(2-Amino-ethoxy)-ethoxy]-acetyl)-γE-ϵK-CO-(CH2)18-CO2H)ENTEILAQV-NH2] (Ac-IVTS[αMeL]D[dV]PTG[αMeL]LQIKLEQERAEKARQQAK([AEEA-γGlu-εLys-C20 diacid])ENTEILAQV-NH2)"
> 1e+07,4.9 ± 0.7,"CC[C@H](C)[C@H](NC(C)=O)C(=O)N[C@H](C(=O)N[C@H](C(=O)N[C@@H](CO)C(=O)N[C@@](C)(CC(C)C)C(=O)N[C@@H](CC(=O)O)C(=O)N[C@@H](C(=O)N1CCC[C@H]1C(=O)N[C@H](C(=O)NCC(=O)N[C@@](C)(CC(C)C)C(=O)N[C@@H](CC(C)C)C(=O)N[C@@H](CCC(N)=O)C(=O)N[C@H](C(=O)N[C@@H](CCCCN)C(=O)N[C@@H](CC(C)C)C(=O)N[C@@H](CCC(=O)O)C(=O)N[C@@H](CCC(N)=O)C(=O)N[C@@H](CCC(=O)O)C(=O)N[C@@H](CCCNC(=N)N)C(=O)N[C@@H](C)C(=O)N[C@@H](CCC(=O)O)C(=O)N[C@@H](CCCCN)C(=O)N[C@@H](C)C(=O)N[C@@H](CCCNC(=N)N)C(=O)N[C@@H](CCC(N)=O)C(=O)N[C@@H](CCC(N)=O)C(=O)N[C@@H](C)C(=O)N[C@@H](CCCCNC(=O)[C@@H](N)CCCCNC(=O)COCCOCCNC(=O)CC[C@H](NC(=O)CCCCCCCCCCCCCCCCCCC(=O)O)C(=O)O)C(=O)N[C@@H](CCC(=O)O)C(=O)N[C@@H](CC(N)=O)C(=O)N[C@H](C(=O)N[C@@H](CCC(=O)O)C(=O)N[C@H](C(=O)N[C@@H](CC(C)C)C(=O)N[C@@H](C)C(=O)N[C@@H](CCC(N)=O)C(=O)N[C@H](C(N)=O)C(C)C)[C@@H](C)CC)[C@@H](C)O)[C@@H](C)CC)[C@@H](C)O)C(C)C)[C@@H](C)O)C(C)C [SEQ ID NO: 34, Ac-IVTS αMeL D (D-Val) PTG αMeL LQIKLEQERAEKARQQAK(ϵK-(2-[2-(2-Amino-ethoxy)-ethoxy]-acetyl)-γE-CO-(CH2)18-CO2H)ENTEILAQV-NH2] (Ac-IVTS[αMeL]D[dV]PTG[αMeL]LQIKLEQERAEKARQQAK([εLys-AEEA-γGlu-C20 diacid])ENTEILAQV-NH2)"
